Values of other authors, collected in US11813363B1, “Concentrated nutritional or supplemental compound for intestinal, gut-brain axis and neurobiological homeostasis through calibrated absorption including neurotransmitter or any equilibrating compound release to treat or mitigate disease and co-morbidities, particularly obesity and malnourishment” (priority 2022, dated 2023).

Conditions: oral ingestion; reddish-orange color of urine

time to visible urine color change after ingestion (earliest): ≥ 20 min | time to visible urine color change after ingestion (latest): within one hour
SMILES: Cl.Nc1ccc(/N=N/c2ccccc2)c(N)n1 [phenazopyridine, phenazopyridine hydrochloride]
